Assay results taken from patent US8258114B2, “Modulation of glucose-6-phosphatase translocase expression” (Isis Pharmaceuticals, Inc., priority 2004, dated 2012).
Where two headings read alike, the source gives them in different places.

Columns and labels:
[1] = system: glucose-6-phosphatase translocase mRNA; experiment: Target mRNA reduction in liver of lean ob/ob+/- mice; format: in vivo, mouse; details: 50 mg/kg s.c. twice weekly, five doses
Procedure: Ob/ob mice have a mutation in the leptin gene which results in obesity and hyperglycemia. […] Seven-week old ob/ob+/−male mice were dosed twice weekly with 50 mg/kg of antisense oligonucleotide, given subcutaneously. A total of five doses were given. glucose-6-phosphatase translocase antisense oligonucleotides used were ISIS 148985 (SEQ ID NO: 118) and ISIS 149008 (SEQ ID NO: 141). Each treatment group was comprised of 4 animals. Animals were sacrificed 48 hours after the last dose of oligonucleotide was administered, and liver triglycerides, liver glycogen content, and target reduction in liver were measured.
Glucose-6-phosphatase translocase mRNA levels in liver were measured at the end of study using RiboGreen™ RNA quantification reagent (Molecular Probes, Inc. Eugene, Oreg.) as taught in previous examples above.
Glucose-6-phosphatase translocase mRNA levels were reduced by approximately 51% in lean mice treated with ISIS 148985, and by approximately 88% in lean mice treated with ISIS 149008, when compared to saline treatment. Thus the antisense compounds ISIS 149008 and ISIS 148985 were effective in reducing liver glucose-6-phosphatase translocase mRNA levels in vivo.

[2] = system: mouse glucose-6-phosphatase translocase mRNA; experiment: Antisense inhibition of mouse glucose-6-phosphatase translocase mRNA in primary mouse hepatocytes, 50 nM (Table 5); format: cell-based; details: 50 nM oligonucleotide, mRNA by real-time PCR, normalized with RIBOGREEN
[3] = system: glucose-6-phosphatase translocase mRNA; experiment: Target reduction in liver: rat dose-response study (Table 12); format: in vivo; details: Sprague-Dawley rats; for % Inhibition, target reduction in liver: three weeks
Procedure: Each treatment group was comprised of 4 animals.
At the end of the treatment period, animals were sacrificed and target reduction in liver was measured by real-time PCR as described in other examples herein. Results are shown in Table 12 as the average percent reduction in glucose-6-phosphatase translocase levels as compared to saline treated control.

[4] = rat, in vivo
Procedure: (§1) Male Zucker fa/fa rats, about 17 to 18 weeks of age, purchased from Charles River Laboratories (Wilmington, Mass.), are maintained on a normal rodent diet. Animals are placed into treatment groups of 8 animals each. […] Another treatment group received the food-administered daily doses of 3 mg/kg of rosiglitazone alone. Saline-injected animals served as a control treatment group.
The liver transaminases, ALT and AST, were measured throughout the study.

[5] = system: rat glucose-6-phosphatase translocase mRNA; experiment: Reduction of glucose-6-phosphatase translocase mRNA in liver or kidney of ZDF rats (Table 15); format: in vivo; details: for % Inhibition of glucose-6-phosphatase translocase, Kidney / % Inhibition of glucose-6-phosphatase translocase, Liver: alone or with rosiglitazone 3 mg/kg daily
Procedure: Saline-injected animals served as a control treatment group. At the end of the treatment period, animals were sacrificed and target reduction in liver and kidney were measured by real-time PCR as described in other examples herein. […] For example, the following primer-probe set was designed to hybridize to rat glucose-6-phosphatase translocase sequences cited in Table 1: Forward primer: [NT] (incorporated herein as SEQ ID NO: 339) Reverse primer: [NT] (incorporated herein as SEQ ID NO: 340) PCR probe: […] (incorporated herein as SEQ ID NO: 341), where FAM is the fluorescent dye and TAMRA is the quencher dye.

[6] = rat, in vivo; remark: listed apart in the source
Procedure: Male Zucker fa/fa rats, about 17 to 18 weeks of age, purchased from Charles River Laboratories (Wilmington, Mass.), are maintained on a normal rodent diet. Animals are placed into treatment groups of 8 animals each. One treatment group was dosed subcutaneously twice weekly with 12.5 mg/kg of ISIS 366228 (SEQ ID NO: 203). Another treatment group was dosed twice weekly with 25 mg/kg of ISIS 366228. Other treatment groups were dosed with 12.5 mg/kg or 25 mg/kg ISIS 366228 twice weekly in combination with daily 3 mg/kg doses of rosiglitazone (Rosi) administered in powdered food. Another treatment group received the food-administered daily doses of 3 mg/kg of rosiglitazone alone. Saline-injected animals served as a control treatment group.
Tissue weights were also determined at the end of the study.

[7] = rat, in vivo; remark: listed apart in the source
Procedure: as §1
Also monitored throughout the study was body composition. Baseline body composition was measured by MRI prior to the start of treatment (BL). Body composition was also measured during week 3 (Wk 3) and during week 5 (Wk 5) of treatment.

[8] = rat, in vivo; remark: listed apart in the source
Procedure: For three weeks, male Sprague-Dawley rats were injected twice-weekly with doses of 12.5 mg/kg, 25 mg/kg, or 50 mg/kg of ISIS 145760, ISIS 359543, or ISIS 366228. Each treatment group was comprised of 4 animals. Animals which received twice weekly injections of saline served as controls.
Body weight was monitored throughout the study period. […] Tissue weights were also measured at the end of the study.

[9] = rat, in vivo; remark: listed apart in the source
[10] = ISIS 366228 12.5 mg/kg twice weekly
[11] = ISIS 366228 25 mg/kg twice weekly

GCTCCATAGCGAGGACTCGA (chemistry not given here) [ISIS 148985]
Glucose-6-phosphatase translocase mRNA levels in liver, reduction compared to saline [1]: approximately 51% | % Inhib [2]: approximately 84% | % Inhib ([2]; listed as 148985): 84%

GTGCTTGGCGATGGTACTGA (chemistry not given here) [ISIS 366228]
% Inhibition, target reduction in liver ([3]; 12.5 mg/kg twice weekly): 69% | % Inhibition, target reduction in liver ([3]; 25 mg/kg twice weekly): 82% | % Inhibition, target reduction in liver ([3]; 50 mg/kg twice weekly): 90% | target mRNA levels in rat liver (in words) ([3]; 12.5 to 50 mg/kg): effective in reducing target mRNA levels in rat liver in a dose-dependent manner | liver transaminases ALT and AST (in words) [4]: reductions in levels of these indicators of liver function | glucose-6-phosphatase translocase levels in liver and kidney (in words) [5]: reduced glucose-6-phosphatase translocase levels in liver and kidney at both doses | % Inhibition of glucose-6-phosphatase translocase, Kidney [5, 10]: 35% | % Inhibition of glucose-6-phosphatase translocase, Liver [5, 10]: 40% | % Inhibition of glucose-6-phosphatase translocase, Kidney [5, 11]: 46% | % Inhibition of glucose-6-phosphatase translocase, Liver [5, 11]: 80% | renal enlargement (in words) [6]: renal enlargement associated with human glycogen storage disease type 1B is not observed | Fat pad weight ([6]; 12.5 mg/kg): 7 grams | Fat pad weight ([6]; 25 mg/kg): 6 grams | body fat percentage (in words) [7]: did not cause marked increases in body fat percentage | Fat weight ([8]; 12.5 mg/kg): 1.6 grams | Fat weight ([8]; 25 mg/kg): 1.5 grams | Fat weight ([8]; 50 mg/kg): 1.1 grams | Kidney weight ([8]; 50 mg/kg): 3 grams | Liver weight ([8]; 50 mg/kg): 15 grams | Spleen weight ([8]; 50 mg/kg): 1.1 grams | body weight (in words) [9]: did not cause increased body weight

TATACAAGTCGGTTTGCCCT (chemistry not given here) [ISIS 149008]
Glucose-6-phosphatase translocase mRNA levels in liver, reduction compared to saline [1]: approximately 88% | % Inhib [2]: ~65%
